For data set [1] the following is noted: in vivo; cited from earlier work.
In data set [2] the test system is influenza virus A/H1N1 (A/New Caledonia/20/99). The data set can be described thus: organism not typed. It counts as cell-based, influenza virus type A. The following applies: MDCK, 72 h, read-out: EC50 vs A/H1N1.
Data set [3] concerns influenza virus A/H3N2 (A/Panama/2007/99). Nature of the data set: organism not typed. It counts as cell-based, influenza virus type A. To be noted: MDCK, 72 h, read-out: EC50 vs A/H3N2.
Data set [4] has as its system influenza virus B (B/Parma/1/07). Nature of the data set: microbe, parasite or virus in culture. To be noted: study I; for EC50: 72 h, MDCK cells, 50% plaque reduction vs control, 3 days. The class given is cell-based.
The subject of data set [5] is influenza virus A/H1N1 (A/New Caledonia/20/1999). It counts as cell-based, influenza virus type A.

Molecules are shown by their SMILES.

Take `CC(=O)N[C@H]1[C@H]([C@H](O)[C@H](O)CO)OC(C(=O)O)=C[C@@H]1N=C(N)N` [zanamivir]: in data set [1], the “absorbed by oral route” value was “about 2%”.
Consider `CCOC(=O)C1=CC(OC(CC)CC)C(NC(C)=O)C(NC2(C(=O)O)CC(O)C(NC(C)=O)C(CNC34CC5CC(CC(C5)C3)C4)O2)C1` (stereo not drawn) [THE 08/01, Amantadine-C7-Neu5Ac—C16H28N2O4], for which the EC50 in data set [2] amounted to 9.9 µM; in data set [3] it was 15.4 µM; in data set [4], 126 µM; in data set [5], 16 µM. Also, the “antiviral activity versus virus type A relative to virus type B” value in data set [4] (higher versus type A than type B) turned out to be 10 folds.
With `CC(=O)NC1C(O)CC(NC(=N)NC2C=C(C(=O)O)OC(C(O)C(O)CO)C2NC(C)=O)(C(=O)O)OC1CNC12CC3CC(CC(C3)C1)C2` (stereo not drawn) [THE 10/01, Amantadine-C7-Neu5Ac—C12H20N4O7], the EC50 in data set [2] amounted to 11.7 µM; in data set [3], 18.3 µM; in data set [4] it was 99.5 µM.

(Values after patent US9284292B2, “Sialochimeric compounds” (THERAPICON S.R.L., priority 2009, dated 2016).)
